Tests used:
Assay in all cases: relative viability (nuclei count vs DMSO), 5 days (fraction); higher = more cells survive
Wnt-C59 + Foretinib = compound: CC1=NC=CC(=C1)C2=CC=C(C=C2)CC(=O)NC3=CC=C(C=C3)C4=CN=CC=C4 [Wnt-C59] + COc1cc2c(Oc3ccc(NC(=O)C4(C(=O)Nc5ccc(F)cc5)CC4)cc3F)ccnc2cc1OCCCN1CCOCC1 [Foretinib] (partner 0.25 µM)
Outline: (§1)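 Medians of duplicate plates are given as relative viability. That measure is the nuclei count in treated wells divided by the count in vehicle wells. Counts were taken on 4× images of lung cancer cell lines in 1536-well plates, 5 days after pin-tool dosing the day after seeding with one drug alone or a fixed anchor-drug dose plus five library-drug doses (not always all listed) in √10 steps.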

Lapatinib + Phenformin = compound: CS(=O)(=O)CCNCc1ccc(-c2ccc3ncnc(Nc4ccc(OCc5cccc(F)c5)c(Cl)c4)c3c2)o1 [Lapatinib] + N=C(N)NC(=N)NCCc1ccccc1 [Phenformin] (partner 250 µM)
Outline: as §1

Wnt-C59 + Olaparib = compound: CC1=NC=CC(=C1)C2=CC=C(C=C2)CC(=O)NC3=CC=C(C=C3)C4=CN=CC=C4 [Wnt-C59] + O=C(c1cc(Cc2n[nH]c(=O)c3ccccc23)ccc1F)N1CCN(C(=O)C2CC2)CC1 [Olaparib] (partner 8 µM)
Outline: as §1

Wnt-C59 + Vorinostat = compound: CC1=NC=CC(=C1)C2=CC=C(C=C2)CC(=O)NC3=CC=C(C=C3)C4=CN=CC=C4 [Wnt-C59] + O=C(CCCCCCC(=O)Nc1ccccc1)NO [Vorinostat] (partner 1 µM)
Outline: as §1

## UMC-11
Wnt-C59 + Foretinib; first compound 0.001 µM
  relative viability: 1.04
Wnt-C59 + Foretinib; first compound 0.01 µM
  relative viability: 1.01
Wnt-C59 + Foretinib; first compound 0.03162 µM
  relative viability: 1.06
Wnt-C59 + Foretinib; first compound 0.1 µM
  relative viability: 0.996
Lapatinib + Phenformin; first compound 0.02 µM
  relative viability: 0.351
Lapatinib + Phenformin; first compound 0.06325 µM
  relative viability: 0.306
Lapatinib + Phenformin; first compound 0.2 µM
  relative viability: 0.297
Lapatinib + Phenformin; first compound 0.6325 µM
  relative viability: 0.321
Lapatinib + Phenformin; first compound 2 µM
  relative viability: 0.298
Wnt-C59 + Olaparib; first compound 0.001 µM
  relative viability: 0.793
Wnt-C59 + Olaparib; first compound 0.01 µM
  relative viability: 0.378
Wnt-C59 + Olaparib; first compound 0.03162 µM
  relative viability: 0.479
Wnt-C59 + Olaparib; first compound 0.1 µM
  relative viability: 0.415
Wnt-C59 + Vorinostat; first compound 0.001 µM
  relative viability: 0.445
Wnt-C59 + Vorinostat; first compound 0.01 µM
  relative viability: 0.418
Wnt-C59 + Vorinostat; first compound 0.03162 µM
  relative viability: 0.339
Wnt-C59 + Vorinostat; first compound 0.1 µM
  relative viability: 0.422

— the supplement of paper PMC10307832
